# In PMC11035632, “Discovery of gefitinib-1,2,3-triazole derivatives against lung cancer via inducing apoptosis and inhibiting the colony formation” (Scientific Reports, 2024):
# Assays:
# [1] = test system: NCI-H1299 cells; assay: CCK-8 assay for cell proliferation and cytotoxicity, NCI-H1299; format: cell-based; settings: Homo sapiens, CCK-8, 48 h
# Experimental: (§1) Three types of lung cells were seeded into 96-well plate at a density of 5 × 10^3 cells per well at logarithmic growth phase and cultured in 37 °C. […] After that, cell viability was determined according to the instruction of the CCK-8 assay. Next, 10 μL of CCK-8 solution was added to each well of the plate and incubate the plate for 1–4 h in the incubator. The absorbance was measured at 450 nm using a microplate reader (Bio-Tek). The percentage of viable cells was measured using the following formula where three independent experiments were performed: [(A450 sample − A450blank)/(A450 control − A450blank)] × 100%.
# [2] = test system: A549 cells; assay: CCK-8 assay for cell proliferation and cytotoxicity, A549; format: cell-based; settings: Homo sapiens, CCK-8, 48 h
# Experimental: A549 cells were cultured in a humidified incubator at 37 °C with 5% CO2 in Ham’s F-12 K (PM150910, Procell) supplemented with 10% FBS and 1% Penicillin Streptomycin.
# as §1
# [3] = test system: NCI-H1437 cells; assay: CCK-8 assay for cell proliferation and cytotoxicity, NCI-H1437; format: cell-based; settings: Homo sapiens, CCK-8, 48 h, read-out: IC50 1437
# Experimental: as §1
# [4] = test system: L02 cells; assay: Cytotoxicity / survival rate in normal hepatocytes L02; format: cell-based; settings: for Survival rate %, 48 h: L02 cells
# [5] = test system: H1299 cells; assay: Flow cytometry detection of apoptosis (Annexin V-EGFP/PI); format: cell-based, human; settings: 48 h
# Experimental: H1299 cells were treated with different concentrations of 7a and 7j for 48 h. The cells were stained with Annexin-V and PI, and the proportion of apoptotic cells was detected using flow cytometry.
# H1299 cells were seeded in a 6-well plate at a density of 1 × 10^5 cells/well and incubated for 24 h. On the following day, the medium was replaced with fresh medium containing 7a or 7j (2, 4 and 8 μmol/L) and cells were incubated for an additional 48 h. Cell apoptosis was detected using Annexin V-EGFP/PI apoptosis detection Kit by flow cytometry. Subsequently, 5 µl of […] Annexin V and 10 µl of PI was added to the cell suspension, gently vortexed, and incubated at room temperature in the dark for 20 min, then single-cell suspension was prepared followed by flow cytometry (BD Accuri™ C6 Plus).
# [6] = test system: H1299 cells; assay: DAPI staining for cell apoptosis; format: cell-based, human; settings: H1299, 2, 4 and 8 μmol/L, 48 h
# Experimental: In order to further verify the apoptotic activity induced by 7a and 7j in lung cancer cells, H1299 cells were treated with different concentrations of compounds 7a and 7j for 48 h, followed by DAPI staining. […] As the drug concentration increased, nuclear staining intensified, and even nuclear condensation and fragmentation phenomena were observed.
# H1299 (1.5 × 10^4 ~ 2 × 10^4 /well) cells were seeded in 24-well plates for 24 h, and then treated with 7a or 7j at the concentrations of 2,4 and 8 μmol/L for 48 h., the cells were fixed for 30 min at room temperature in 4% paraformaldehyde and washed 3 times in PBS. Finally, every well was stained with DAPI (10 µg/mL, C0065, Solarbio) at room temperature for 30 min, and washed at least three times in PBS. The fluorescence microscope was used to observe the morphological changes of cell nuclei.
# [7] = test system: H1299 cells; assay: Wound healing assay; format: cell-based, human; settings: 24 h
# Experimental: H1299 cells were seeded in a 6-well plate, When the cell confluency reached 95%, a wound line was scratched using a 200 µl pipette tip, and then washed three times, fresh medium containing 7a or 7j (2, 4 and 8 μmol/L) was added, and the plate was incubated at 37 °C with 5% CO2. All the images were captured at 0 h and 24 h under an inverted microscope, and the quantification of scratches was analysed using Image J.
# [8] = test system: H1299 cells; assay: Transwell migration assay; format: cell-based, human; settings: H1299, 2, 4 and 8 μmol/L, 24 h, vs normal control, p < 0.01
# Experimental: Transwell chamber migration assay is another important method to assess cell migration ability. Tumor cells are seeded in the chamber, and the number of tumor cells that pass through the membrane is counted to evaluate the migration ability of tumor cells.
# Transwell assay was used to determine the migration ability of H1299 cells. Cells were starved in serum-free RPMI 1640 medium for 24 h, then detached and resuspended in serum-free RPMI 1640 medium. 5 × 10^5 cells/mL were inoculated into the upper chamber of a 24-well Transwell plate (Corning Inc., United States), with a volume of 100 µl per well. Then, 100 µL serum-free medium containing 7a or 7j (2, 4 and 8 μmol/L) was added to the upper chamber and the lower chamber was filled with 700 µL medium containing 20% FBS. After incubation for 24 h, H1299 cells on the upper membrane of the transwell were wiped off. The migrated cells were treated with 4% paraformaldehyde for 20 min, stained with 0.1% crystal violet for 20 min and washed three times with PBS. The number of H1299 cells that migrated to the underside of the membrane was counted under the inverted fluorescence microscope. Three randomly selected areas from each transwell were photographed and calculated using Image J.
# [9] = test system: H1299 cells; assay: Colony formation assay; format: cell-based, human; settings: 7 days
# Text: The colony formation assay is an important method for evaluating the ability of adherent cells to proliferate and form colonies on a plate, and it is widely used to assess cell proliferation. We also employed the colony formation assay to further confirm that compounds 7a and 7j can inhibit the proliferation of lung cancer cells, as shown in Fig. 5. After treating lung cancer cells with low, medium, and high concentrations (1, 2, 4 μmol/L) of compounds for 7 days, the number of cell colonies was counted to analyze the proliferation inhibition rate.
# H1299 cells were seeded in six-well plates at a density of 500 cells per well and treated with 7a or 7j (1, 2 and 4 μmol/L) for 7 days. Then, cells were per-fixed with 4% paraformaldehyde for 30 min, stained with 0.1% Crystal violet for 15 min, and then washed with pure water. Taking a picture after the plates were air-dry. The clone formations number was counted with Image J.
# [10] = test system: Bcl-2, caspase9, Cleaved-Caspase3, Cleaved-PARP, MMP9 in H1299 cells; assay: Western blot of apoptosis- and migration-related proteins; format: cell-based, human; settings: H1299, 4, 8 or 16 μM, 48 h
# Text: We conducted an in-depth investigation into the mechanism of apoptosis induced by compounds 7a and 7j. The Bcl-2 protein family is located upstream of the apoptosis signaling pathway. Bcl-2 proteins play an anti-apoptotic role by inhibiting the release of cytochrome C (cyt-c) from mitochondria. Previous literature reports that many anticancer drugs induce apoptosis by downregulating Bcl-2 expression. During apoptosis, the expression of Bcl-2 is inhibited, cyt-c is released, and it binds with the apoptotic protease activation factor to form the apoptosome. This triggers a cascade reaction of Caspase family proteins, with apoptosome promoting the activation of Caspase9. Activated Caspase9 then activates Caspase3, forming the Caspase3 cleavage body, which further activates downstream PARP protein, ultimately promoting cell apoptosis. […] After treating H1299 cells with different concentrations of compounds for 48 h, cell proteins were extracted, and western blot was used to detect the expression changes of apoptosis-related proteins.
# Firstly, H1299 cells were treated with different concentrations concentrations of 7a and 7j at 4, 8 and 16 μmol/L for 48 h, cells were harvested using RIPA lysate (R0010, Solarbio) and centrifuged at 12,000 rpm for 15 min at 4 °C, and then the concentration of total protein was measured and taken from the supernatant. Protein was separated by 12% SDS–polyacrylamide gel electrophoresis and transferred to nitrocellulose filter membrane. after blocking in 5% milk for 2 h, the membranes were incubated with specific primary antibody at 4 °C overnight. Next day, NC membranes were incubated for 1 h at room temperature with appropriate secondary antibodies, and then Protein bands was visualizing by chemiluminescence detection (ECL kit, Genview).
smiles,measurement,setting,value
COc1cc2ncnc(Nc3cccc(-c4cn(Cc5ccc(Br)cc5F)nn4)c3)c2cc1OCCCN1CCOCC1 [Compound 7b],IC50,[1],4.6 ± 0.16 µM
same,IC50,[2],5.28 ± 0.2 µM
same,IC50,[3],3.65 ± 0.04 µM
COc1cc2ncnc(Nc3cccc(-c4cn(Cc5ccc(Cl)c(F)c5)nn4)c3)c2cc1OCCCN1CCOCC1 [Compound 7c],IC50,[1],6.24 ± 0.32 µM
same,IC50,[2],5.68 ± 0.14 µM
same,IC50,[3],3.08 ± 0.47 µM
COc1cc2ncnc(Nc3cccc(-c4cn(Cc5c(F)cccc5Cl)nn4)c3)c2cc1OCCCN1CCOCC1 [Compound 7d],IC50,[1],6.04 ± 0.41 µM
same,IC50,[2],8.5 ± 0.41 µM
same,IC50,[3],4.83 ± 0.16 µM
COc1cc2ncnc(Nc3cccc(-c4cn(Cc5ccccc5[N+](=O)[O-])nn4)c3)c2cc1OCCCN1CCOCC1 [Compound 7e],IC50,[1],5.81 ± 0.12 µM
same,IC50,[2],4.38 ± 0.07 µM
same,IC50,[3],2.22 ± 0.18 µM
COc1cc2ncnc(Nc3cccc(-c4cn(Cc5ccc([N+](=O)[O-])cc5)nn4)c3)c2cc1OCCCN1CCOCC1 [Compound 7f],IC50,[1],5.65 ± 0.16 µM
same,IC50,[2],16.4 ± 1.07 µM
same,IC50,[3],3.95 ± 0.45 µM
"COc1cc2ncnc(Nc3cccc(-c4cn(Cc5ccccc5F)nn4)c3)c2cc1OCCCN1CCOCC1 [Compound 7g, N-(3-(1-(2-fluorobenzyl)-1H-1,2,3-triazol-4-yl)phenyl)-7-methoxy-6-(3-morpholinopropoxy)quinazolin-4-amine]",IC50,[1],5.97 ± 0.36 µM
same,IC50,[2],6.23 ± 0.12 µM
same,IC50,[3],1.66 ± 0.18 µM
COc1cc2ncnc(Nc3cccc(-c4cn(Cc5ccc(C(F)(F)F)cc5)nn4)c3)c2cc1OCCCN1CCOCC1 [Compound 7h],IC50,[1],4.89 ± 0.16 µM
same,IC50,[2],7.13 ± 1.21 µM
same,IC50,[3],5.21 ± 0.3 µM
COc1cc2ncnc(Nc3cccc(-c4cn(Cc5ccc(I)cc5)nn4)c3)c2cc1OCCCN1CCOCC1 [Compound 7i],IC50,[1],5.6 ± 0.09 µM
same,IC50,[2],5.76 ± 0.62 µM
same,IC50,[3],4.69 ± 0.23 µM
COc1cc2ncnc(Nc3cccc(-c4cn(Cc5cccc(Cl)c5)nn4)c3)c2cc1OCCCN1CCOCC1 [Compound 7j],IC50,[1],3.84 ± 0.22 µM
same,IC50,[2],3.86 ± 0.38 µM
same,IC50,[3],1.69 ± 0.25 µM
same,IC50,"[4]; Homo sapiens, normal hepatocytes L02",17.7 ± 0.52 µM
same,"Survival rate %, 48 h",[4]; 2 μM,94.49 ± 4.11%
same,"Survival rate %, 48 h",[4]; 4 μM,89.12 ± 5.50%
same,"Survival rate %, 48 h",[4]; 8 μM,75.59 ± 2.65%
same,"Survival rate %, 48 h",[4]; 16 μM,59.14 ± 1.54%
same,"Survival rate %, 48 h",[4]; 32 μM,24.48 ± 3.68%
same,total apoptotic cell proportion,"[5]; H1299, 2 μmol/L",14.97 ± 1.54%
same,total apoptotic cell proportion,"[5]; H1299, 4 μmol/L",27.07 ± 2.77%
same,total apoptotic cell proportion,"[5]; H1299, 8 μmol/L",65.77 ± 2.93%
same,apoptotic morphology by DAPI staining,[6],exhibited typical apoptotic features
same,migration closure rate,"[7]; H1299, 2 μmol/L",72.57 ± 3.43%
same,migration closure rate,"[7]; H1299, 4 μmol/L",60.91 ± 8.48%
same,migration closure rate,"[7]; H1299, 8 μmol/L",48.88 ± 3.23%
same,number of cells passing through the membrane to the lower surface of the chamber,[8],significantly decreased
same,formation of H1299 cell colonies,[9]; 1 μmol/L,markedly inhibit
same,colony formation,"[9]; H1299, 4 μmol/L",almost completely suppressed
same,Bcl-2 protein expression level,[10],decrease
same,Cleaved-Caspase3 protein expression level,[10],increased
same,Cleaved-PARP protein expression level,[10],increased
same,MMP9 protein expression,[10],downregulated
same,caspase9 protein expression level,[10],decrease
